Laboratory results from patent US20230109839A1, “THERAPEUTIC AGENT FOR TAUOPATHIES” (SUMITOMO PHARMA CO., LTD., priority 2020, published 2023).

Molecular target: T1, human Nav1.1 (Homo sapiens, UniProt P35498)
T1 construct: host or cells: HEK293
Test: Amplification of Nav1.1-derived voltage-gated sodium current (Nav1.1 current), automated patch clamp (Test 1)
Assay type: cell-based
Conditions: HEK293 cell line stably expressing human Nav1.1; for activation at 10 µM: HEK293, Concentration for evaluation 10 μM, read-out: Nav1.1 current amplification rate (%)
Description: Test 1: Evaluation of the Amplification of Nav1.1-Derived Voltage-Gated Sodium Current (Nav1.1 Current) by Using a Cell Line Stably Expressing Human Nav1.1
(1) Preparation of Test Compound Solution
Test compounds were prepared by dissolving in DMSO at 200 times of the concentration at evaluation, and diluting the obtained solution to twice the concentration of evaluation with an extracellular fluid (135 mmol/L NaCl, 4 mmol/L KCl, 1 mmol/L MgCl2, 5 mmol/L CaCl2, 5 mmol/L Glucose, 10 mmol/L HEPES).
(2) Induction and Measurement of Nav1.1 Current
A HEK293 cell line stably expressing human Nav1.1 (cat #CYL3009, Eurofins DiscoverX Products, LLC, Human Embryonic Kidney 293) was purchased, and used in the present test. Nav1.1 current was induced by stimulating Ramp wave voltage. Detection of current which accompanied with the stimulation of voltage was carried out by a patch-clamp voltage-clamp method using HTS automated patch clamp system (SynchroPatch 768PE, Nanion Technologies GmbH, Germany). Only cells with more than 500 pA of voltage-gated sodium channel current were used for the evaluation of the activity of compounds on Nav1.1 current because there was the possibility that currents derived from endogenous voltage-gated sodium channels accounted for large proportion in cells with less than 500 pA of voltage-gated sodium channel current which was induced by stimulating Ramp wave voltage.
(3) Pharmacological Effect on Nav1.1 Current
The effect of test compounds on the amplification of Nav1.1-derived voltage-gated sodium current was evaluated by using a cell line stably expressing human Nav1.1 and HTS automated patch clamp system. In other words, test compounds were added in an extracellular fluid containing 1% DMSO, and evaluated as a change of the peak value of Nav1.1 current and the area under the curve (AUC).
(4) Method for Pharmacological Evaluation
The Nav1.1 current amplification rates of test compounds were calculated by the following formula:
Nav1.1 current amplification rate (%)=100×[the peak value of Nav1.1 current or the area under the curve after the addition of test compounds]/[the peak value of Nav1.1 current or the area under the curve before the addition of test compounds]−100

[1] = Concentration for evaluation 10 μM
[2] = Concentration for evaluation 3 μM

| Compound | Nav1.1 current amplification rate (%) [1] | further results |
| --- | --- | --- |
| CC1CCN(c2ccc(=O)n(CC(=O)Nc3cncc(F)c3)n2)CC1 [Example 65] | 17% | – |
| CC1CCN(c2ccc(=O)n(CC(=O)Nc3ccnc(N4CCOCC4)c3)n2)CC1 [Example 66] | 49% | – |
| CC1CCN(c2ccc(=O)n(CC(=O)Nc3cccc(-n4ccnc4)c3)n2)CC1 [Example 67] | 177% | – |
| Cc1nc2ccc(NC(=O)Cn3nc(N4CCC(C)CC4)ccc3=O)cc2o1 [Example 68] | 42% | – |
| Cc1nc2cc(NC(=O)Cn3nc(N4CCC(C)CC4)ccc3=O)ccc2o1 [Example 69] | 137% | – |
| Cc1noc2ccc(NC(=O)Cn3nc(N4CCC(C)CC4)ccc3=O)cc12 [Example 70] | 68% | – |
| CC1CCN(c2ccc(=O)n(CC(=O)Nc3ccn4nccc4c3)n2)CC1 [Example 71] | 131% | – |
| CC1CCN(c2ccc(=O)n(CC(=O)Nc3ccn4ccnc4c3)n2)CC1 [Example 72] | 119% | – |
| CC1CCN(c2ccc(=O)n(CC(=O)Nc3ccc4ncoc4c3)n2)CC1 [Example 73] | 92% | – |
| CC1CCN(c2ccc(=O)n(CC(=O)Nc3cccc(-c4cnco4)c3)n2)CC1 [Example 77] | 93% | – |
| CC1CCN(c2ccc(=O)n(CC(=O)Nc3cccc(-c4ncco4)c3)n2)CC1 [Example 78] | 78% | – |
| CC1CCN(c2ccc(=O)n(CC(=O)Nc3ccc(C(=O)N4CCCC4)cc3)n2)CC1 [Example 79] | 165% | – |
| CC1CCN(c2ccc(=O)n(CC(=O)Nc3ccc4oc(=O)n(C)c4c3)n2)CC1 [Example 81] | 69% | – |
| CC1CCN(c2ccc(=O)n(CC(=O)Nc3ccc4cnn(C)c4c3)n2)CC1 [Example 83] | 45% | – |
| CC1CCN(c2ccc(=O)n(CC(=O)Nc3ccc4c(c3)NC(=O)C4)n2)CC1 [Example 86] | 73% | – |
| Cc1nc2cc(NC(=O)Cn3nc(N4CCC(C)CC4)ccc3=O)ccc2s1 [Example 88] | 183% | – |
| CC1CCN(c2ccc(=O)n(CC(=O)Nc3ccc4nccn4c3)n2)CC1 [Example 90] | 31% | – |
| CC1CCN(c2ccc(=O)n(CC(=O)Nc3ccc4oc(N(C)C)nc4c3)n2)CC1 [Example 91] | 93% | – |
| CC1CCN(c2ccc(=O)n(CC(=O)Nc3cc(Cl)c4ocnc4c3)n2)CC1 [Example 94] | 198% | – |
| Cc1cc(NC(=O)Cn2nc(N3CCC(C)CC3)ccc2=O)cc2ncoc12 [Example 96] | 105% | – |
| CCc1nc2cc(NC(=O)Cn3nc(N4CCC(C)CC4)ccc3=O)ccc2o1 [Example 97] | 296% | – |
| COc1nc2cc(NC(=O)Cn3nc(N4CCC(C)CC4)ccc3=O)ccc2o1 [Example 99] | 103% | – |
| Cc1cc(NC(=O)Cn2nc(C3=CCC(F)(F)CC3)ccc2=O)cc(C)n1 [Example 102] | – | activation at 10 µM: 8% |

| Compound | Nav1.1 current amplification rate (%) [1] | further results |
| --- | --- | --- |
| O=C(Cn1nc(N2CCCCC2)ccc1=O)Nc1ccc(C(F)(F)F)nc1 [Example 104] | – | activation at 10 µM: 11% |
| N#Cc1cncc(NC(=O)Cn2nc(N3CCCCC3)ccc2=O)c1 [Example 108] | – | activation at 10 µM: 5% |
| N#Cc1ccc(NC(=O)Cn2nc(N3CCCCC3)ccc2=O)cn1 [Example 110] | – | activation at 10 µM: 12% |
| O=C(Cn1nc(N2CCCCC2)ccc1=O)Nc1ccnc(C(F)(F)F)c1 [Example 113] | – | activation at 10 µM: 30% |
| N#Cc1cc(NC(=O)Cn2nc(N3CCCCC3)ccc2=O)ccn1 [Example 116] | – | activation at 10 µM: 12% |
| Cc1nc2cc(NC(=O)Cn3nc(N4CCCCC4)ccc3=O)ccc2o1 [Example 118] | – | activation at 10 µM: 7% |
| Cc1ccc(-c2ccc(=O)n(CC(=O)Nc3cncnc3)n2)cc1 [Example 141] | 46% | – |
| Cc1ccc(-c2ccc(=O)n(CC(=O)Nc3ccnnc3)n2)cc1 [Example 142] | 34% | – |
| Cc1ccc(-c2nn(CC(=O)Nc3ccn4ccnc4c3)c(=O)c(C)c2C)cc1 [Example 156] | 33% | – |
| Cc1ccc(-c2ccc(=O)n(CC(=O)N3CCc4ccccc43)n2)cc1 [Example 157] | – | Nav1.1 current amplification rate (%) (Concentration for evaluation 50 μM): 29% |
| Cc1ccc(-c2ccc(=O)n(CC(=O)N3CCc4cnccc43)n2)cc1 [Example 159] | 32% | – |
| CN(C)c1cc(N2CCC3(CCC3)C2)nn(CC(=O)Nc2ccn3ccnc3c2)c1=O [Example 210] | – | activation at 10 µM: 178% |
| COc1nc2cc(NC(=O)Cn3nc(C4=CCC(C)CC4)ccc3=O)ccc2o1 (stereo not shown) [Example 239] | 310% | – |
| CC1CC=C(c2ccc(=O)n(CC(=O)Nc3cc(F)c4ocnc4c3)n2)CC1 (stereo not shown) [Example 241] | 260% | – |
| CC1CC=C(c2ccc(=O)n(CC(=O)N3CCc4c(N5CCOCC5)cccc43)n2)CC1 (stereo not shown) [Example 245] | – | Nav1.1 current amplification rate (%) (Concentration for evaluation 1 μM): 393% |
| CC1CC=C(c2ccc(=O)n(CC(=O)N3CCc4c3ccnc4Cl)n2)CC1 (stereo not shown) [Example 247] | 53% | – |
| CC1CC=C(c2ccc(=O)n(CC(=O)N3CCc4c(-c5cccnc5)cccc43)n2)CC1 (stereo not shown) [Example 248] | – | Nav1.1 current amplification rate (%) [2]: 392% |
| COc1ncc(-c2cccc3c2CCN3C(=O)Cn2nc(C3=CCC(C)CC3)ccc2=O)cn1 (stereo not shown) [Example 249] | – | Nav1.1 current amplification rate (%) [2]: 584% |
| CC1CC=C(c2ccc(=O)n(CC(=O)N3CCc4c(-c5ccncc5)cccc43)n2)CC1 (stereo not shown) [Example 250] | – | Nav1.1 current amplification rate (%) [2]: 564% |
| CC1CC=C(c2ccc(=O)n(CC(=O)N3CCc4c(-c5ccnn5C)cccc43)n2)CC1 (stereo not shown) [Example 251] | – | Nav1.1 current amplification rate (%) [2]: 307% |
| CC1CC=C(c2ccc(=O)n(CC(=O)N3CCc4c(-c5ccn(C)n5)cccc43)n2)CC1 (stereo not shown) [Example 252] | – | Nav1.1 current amplification rate (%) [2]: 254% |
| CC1CC=C(c2ccc(=O)n(CC(=O)N3CCc4c(-c5ccnnc5)cccc43)n2)CC1 (stereo not shown) [Example 253] | – | Nav1.1 current amplification rate (%) [2]: 455% |
| CC1CC=C(c2ccc(=O)n(CC(=O)N3CCc4c(-c5cn[nH]c5)cccc43)n2)CC1 (stereo not shown) [Example 254] | – | Nav1.1 current amplification rate (%) [2]: 309% |

Continued, in another order:

| Nav1.1 current amplification rate (%) [1] | Compound | further results |
| --- | --- | --- |
| 13% | COc1ccc(NC(=O)Cn2nc(N3CCC(C)CC3)ccc2=O)cn1 [Example 62] | – |
| 49% | CC1CCN(c2ccc(=O)n(CC(=O)Nc3cncc(Cl)c3)n2)CC1 [Example 63] | – |
| 11% | COc1cncc(NC(=O)Cn2nc(N3CCC(C)CC3)ccc2=O)c1 [Example 64] | – |
| 70% | COc1cc(NC(=O)Cn2nc(N3CCC(C)CC3)ccc2=O)ccn1 [Example 74] | – |
| 15% | Cc1nccn1-c1cccc(NC(=O)Cn2nc(N3CCC(C)CC3)ccc2=O)c1 [Example 75] | – |
| 131% | CC1CCN(c2ccc(=O)n(CC(=O)Nc3cccc(-c4nccs4)c3)n2)CC1 [Example 80] | – |
| 121% | CC1CCN(c2ccc(=O)n(CC(=O)Nc3ccc4oc(=O)[nH]c4c3)n2)CC1 [Example 82] | – |
| 315% | Cc1noc2cc(NC(=O)Cn3nc(N4CCC(C)CC4)ccc3=O)ccc12 [Example 84] | – |
| 15% | CC1CCN(c2ccc(=O)n(CC(=O)Nc3ccc4ncn(C)c4c3)n2)CC1 [Example 85] | – |
| 255% | CC1CCN(c2ccc(=O)n(CC(=O)Nc3ccc4scnc4c3)n2)CC1 [Example 87] | – |
| 88% | CC1CCN(c2ccc(=O)n(CC(=O)Nc3ccc4sc(N(C)C)nc4c3)n2)CC1 [Example 92] | – |
| 65% | CC1CCN(c2ccc(=O)n(CC(=O)Nc3ccc4c(c3)CCNC4=O)n2)CC1 [Example 93] | – |
| 15% | CC1CCN(c2ccc(=O)n(CC(=O)Nc3ccc4c(c3)ncn4C)n2)CC1 [Example 98] | – |
| 122% | Cc1ccc(-c2ccc(=O)n(CC(=O)N3CCc4cc(N5CCOCC5)ccc43)n2)cc1 [Example 158] | – |
| 241% | Cc1noc2cc(NC(=O)Cn3nc(C4=CCC(C)CC4)ccc3=O)ccc12 (stereo not shown) [Example 240] | – |
| 97% | CC1CC=C(c2ccc(=O)n(CC(=O)Nc3ccn4ccnc4n3)n2)CC1 (stereo not shown) [Example 242] | – |
| 276% | CC1CC=C(c2ccc(=O)n(CC(=O)Nc3ccc4oc(C(F)F)nc4c3)n2)CC1 (stereo not shown) [Example 243] | – |
| 136% | CC1CC=C(c2ccc(=O)n(CC(=O)N3CCc4cc(N5CCOCC5)ccc43)n2)CC1 (stereo not shown) [Example 246] | – |
